Test results reported in US20160320384A1, “METHODS FOR ASSAYING IMMUNOLOGICAL COMPETENCE” (YEDA RESEARCH AND DEVELOPMENT CO. LTD., priority 2013, published 2016).

Legend:
[1] = tested on: serum IgM antibodies; assay: Serum IgM antibody binding to oligonucleotides on antigen microarray; parameters: species or system human; settings: for IgM binding compared to G17: individual subjects (FIG. 4); for IgM reactivities compared to T17: individual subjects (FIGS. 5A-B)
Experimental: (§1) In a follow-up study, sera samples obtained from 23 healthy subjects, 24 SSc patients, and 49 SLE patients were tested using an antigen microarray that included 58 single-stranded oligonucleotides. Overall, 60 SLE patients, 26 SSc patients, 18 PV patients, and 31 healthy subjects were tested.
(§2) In a follow-up study, 58 different oligonucleotides, as well as double and single stranded DNA, in various lengths (104 different preparations overall), were spotted on epoxy-activated glass substrates (ArrayIt SuperEpoxi microarray substrate slides, Sunnyvale, Calif.). […] The microarrays were then blocked for 1 hour at 37° with 1% bovine serum albumin. Test serum samples in 1% Bovine Serum Albumin (BSA) blocking buffer (1:10 dilution) were incubated under a coverslip for 1 hour at 37°. The arrays were then washed and incubated for 1 hour at 37° with a 1:500 dilution of two detection antibodies, mixed together: a goat anti-human IgG Cy3-conjugated antibody, and a goat anti-human IgM Cy5-conjugated antibody (both purchased from Jackson ImmunoResearch Laboratories Inc., West Grove, Pa.). Image acquisition was performed by laser (Agilent Technologies, Santa Clara, Calif.) and the results were analyzed using Quantarray software (Packard BioChip Technologies, Billerica, Mass.). The quantitative range of signal intensity of binding to each antigen spot was 0-65,000; this range of detection made it possible to obtain reliable data at a 1:10 dilution of test serum samples.
(§3) Alternatively, oligonucleotides and double and single stranded DNA in various chain lengths were spotted on epoxyhexyltriethoxysilane (EHTES) activated slides. The microarrays were then blocked for 1 hour at room temperature with 1% casein. Test serum samples in 1% casein blocking buffer (1:20 dilution) were incubated under a coverslip for 1 hour at 37°. The arrays were then washed and incubated for 1 hour at 37° with a 1:500 dilution of two detection antibodies, mixed together: a goat anti-human IgG Cy3-conjugated antibody, and a goat anti-human IgM AF647-conjugated antibody (both purchased from Jackson ImmunoResearch Laboratories Inc., West Grove, Pa.). Image acquisition was performed by laser at two wavelengths 530 nm and 630 nm (Agilent Technologies, Santa Clara, Calif.) and the results were analyzed using Genepix Pro 7.0 software with default settings. The quantitative range of signal intensity of binding to each antigen spot was 0-65,000; this range of detection made it possible to obtain reliable data at a 1:20 dilution of test samples.
(§4) Each spot's intensity is represented by its pixels' mean after subtraction of its local background median, followed by Log 2 transform. Negative spots (following background subtraction) are imputed with background-like intensity. The foreground and background intensities of multiple spots of each antigen were averaged, and the difference between the foreground and the background was calculated.

[2] = tested on: serum IgG antibodies; assay: Serum IgG antibody binding to oligonucleotides on antigen microarray; parameters: species or system human; settings: for IgG binding compared to G17: individual subjects (FIG. 4); for IgG reactivities compared to T17: individual subjects (FIGS. 5A-B)
Experimental: as §1, §2, §3, §4

[3] = tested on: poly-G autoantibody; assay: Poly-G autoantibody levels in kidney transplanted patients at baseline and 24 weeks after transplantation and immunosuppression (antigen microarray); assay type: in vivo, human; parameters: reduction in G14 IgM autoantibody intensity / reduction in G14 IgG autoantibody intensity / reduction in G40 IgM autoantibody intensity: concentration or dose not given beside the values
[4] = both studies combined: 60 SLE, 26 SSc, 18 PV patients, 31 healthy subjects
[5] = healthy subjects, SSc and PV patients (FIG. 1)
[6] = median intensity, 24 weeks after Tx vs baseline

Q: With “TGGGGGGGGGGGGGGGG (listed as DNA, chemistry not given here) [T1G16]” as the substance, how does the “IgM binding compared to G17” value [1] read?
A: Its value is “essentially equal to the binding to the G17”.

Q: What about the “IgG binding compared to G17” value [2] of the same substance?
A: Its value is “essentially equal to the binding to the G17”.

Q: With “G17: poly-guanine oligonucleotide antigen, 17 guanines (GGGGGGGGGGGGGGGGG; listed as DNA, chemistry not fully specified)” as the substance, how does the “mean IgG reactivities as a function of chain length” value ([2]; healthy, SSc, SLE dsDNA-negative and -positive groups (FIG. 3)) read?
A: Its value is “fell significantly”.

Q: What does the source list for “T20: 20-mer thymine homo-nucleotide (DNA TTTTTTTTTTTTTTTTTTTT)”?
A: IgG reactivities [2, 4]: relatively low reactivities; IgG reactivities [2, 5]: very low or no reactivities

Q: What does the source list for “CGCGCGCGCGCGCGCGCGCG (listed as DNA, chemistry not given here) [(CG)10]”?
A: IgM reactivities ([1]; healthy subjects, SSc and SLE patients (FIG. 6)): high in all but one of the healthy subjects, in all of the SSc patients and in most of the SLE patients; IgG reactivities ([2]; group of SLE patients, mainly positive for anti-dsDNA (FIG. 6)): high IgG reactivities

Q: What does the source list for “T16G1: poly-T chain with a single G at the 3′ end (DNA TTTTTTTTTTTTTTTTG; listed as DNA, chemistry not fully specified)”?
A: IgM reactivities compared to T17 [1]: increased in almost all the subjects; IgG reactivities compared to T17 [2]: increased in almost all the subjects

Q: Which results are given for belatacept?
A: patients in whom the reduction in poly-G autoantibody intensity was observed ([3]; 6 months post immunosuppression administration, 6 patients per group): observed in all belatacept patients; reduction in autoantibodies median intensity, combined poly-G reactivity ([3]; FIGS. 12A-B, 24 weeks after Tx vs baseline, belatacept vs CsA): greater reduction; Antibody level 24 weeks after transplantation and drug administration compared to baseline (%, median intensity): IgG levels against G14 (SEQ ID NO: 41) ([3]; kidney transplanted patients, serum, 24 weeks after Tx vs baseline, IgG, G14): 53%; Antibody level 24 weeks after transplantation and drug administration compared to baseline (%, median intensity): IgG levels against G17 (SEQ ID NO: 36) ([3]; kidney transplanted patients, serum, 24 weeks after Tx vs baseline, IgG, G17): 70%; Antibody level 24 weeks after transplantation and drug administration compared to baseline (%, median intensity): IgG levels against G20 (SEQ ID NO: 43) ([3]; kidney transplanted patients, serum, 24 weeks after Tx vs baseline, IgG, G20): 58%; Antibody level 24 weeks after transplantation and drug administration compared to baseline (%, median intensity): IgG levels against G30 (SEQ ID NO: 65) ([3]; kidney transplanted patients, serum, 24 weeks after Tx vs baseline, IgG, G30): 67%; Antibody level 24 weeks after transplantation and drug administration compared to baseline (%, median intensity): IgG levels against G40 (SEQ ID NO: 66) ([3]; kidney transplanted patients, serum, 24 weeks after Tx vs baseline, IgG, G40): 81%; Antibody level 24 weeks after transplantation and drug administration compared to baseline (%, median intensity): IgM levels against G14 (SEQ ID NO: 41) ([3]; kidney transplanted patients, serum, 24 weeks after Tx vs baseline, IgM, G14): 45%; Antibody level 24 weeks after transplantation and drug administration compared to baseline (%, median intensity): IgM levels against G17 (SEQ ID NO: 36) ([3]; kidney transplanted patients, serum, 24 weeks after Tx vs baseline, IgM, G17): 63%; Antibody level 24 weeks after transplantation and drug administration compared to baseline (%, median intensity): IgM levels against G20 (SEQ ID NO: 43) ([3]; kidney transplanted patients, serum, 24 weeks after Tx vs baseline, IgM, G20): 63%; Antibody level 24 weeks after transplantation and drug administration compared to baseline (%, median intensity): IgM levels against G30 (SEQ ID NO: 65) ([3]; kidney transplanted patients, serum, 24 weeks after Tx vs baseline, IgM, G30): 59%; Antibody level 24 weeks after transplantation and drug administration compared to baseline (%, median intensity): IgM levels against G40 (SEQ ID NO: 66) ([3]; kidney transplanted patients, serum, 24 weeks after Tx vs baseline, IgM, G40): 72%; reduction in G14 IgG autoantibody intensity [3, 6]: 47%; reduction in G14 IgM autoantibody intensity [3, 6]: 55%; reduction in G17 IgG autoantibody intensity [3, 6]: 30%; reduction in G17 IgM autoantibody intensity (FIG. 8A) [3, 6]: 37%; reduction in G20 IgG autoantibody intensity [3, 6]: 42%; reduction in G20 IgM autoantibody intensity [3, 6]: 37%; reduction in G30 IgG autoantibody intensity [3, 6]: 33%; reduction in G30 IgM autoantibody intensity [3, 6]: 41%; reduction in G40 IgG autoantibody intensity [3, 6]: 19%; reduction in G40 IgM autoantibody intensity [3, 6]: 28%

Q: With “G1T16: poly-T chain with a single G at the 5′ end (DNA GTTTTTTTTTTTTTTTT; listed as DNA, chemistry not fully specified)” as the substance, how does the “IgM reactivities compared to T17” value [1] read?
A: The value was “increased in almost all the subjects”.

Q: What about the “IgG reactivities compared to T17” value [2] of the same substance?
A: The value was “increased in almost all the subjects”.

Q: What does the source list for “A20: 20-mer adenine homo-nucleotide (AAAAAAAAAAAAAAAAAAAA; listed as DNA, chemistry not fully specified)”?
A: IgG reactivities [2, 4]: relatively low reactivities; IgG reactivities [2, 5]: very low or no reactivities

Q: What does the source list for “G16T1: G16 with a single T added at the 3′ end (GGGGGGGGGGGGGGGGT; listed as DNA, chemistry not fully specified)”?
A: IgM binding compared to G17 [1]: considerably less than the binding to G17; IgG binding compared to G17 [2]: considerably less than the binding to G17

Q: Which “IgM reactivities compared to T17” value [1] does the source give for “G2T16: modified T17 oligonucleotide (DNA GGTTTTTTTTTTTTTTTT; listed as DNA, chemistry not fully specified)” here?
A: The value was “also increased compared to T17”.

Q: What about the “IgG reactivities compared to T17” value [2] of the same substance?
A: The value was “also increased compared to T17”.

Q: With “T16G2: modified T17 oligonucleotide (DNA TTTTTTTTTTTTTTTTGG; listed as DNA, chemistry not fully specified)” as the substance, how does the “IgM reactivities compared to T17” value [1] read?
A: Its value is “also increased compared to T17”.

Q: And the “IgG reactivities compared to T17” value [2]?
A: Its value is “also increased compared to T17”.
